This is an account of results in the Kinase Knowledgebase extract (Sharma et al. 2016).

Values joined by “and” are separate entries in the source; they are usually repeats but may differ in a detail not shown here. Identical values can stand only once. Bounds are passed on as bounds.

The assay has as its target ROCK2 (human) (UniProt O75116). The assay is described as follows: Inhibition of ROCK2 Kinase Activity.

Chain of ROCK2 (human) (O75116 whole entry, looked up): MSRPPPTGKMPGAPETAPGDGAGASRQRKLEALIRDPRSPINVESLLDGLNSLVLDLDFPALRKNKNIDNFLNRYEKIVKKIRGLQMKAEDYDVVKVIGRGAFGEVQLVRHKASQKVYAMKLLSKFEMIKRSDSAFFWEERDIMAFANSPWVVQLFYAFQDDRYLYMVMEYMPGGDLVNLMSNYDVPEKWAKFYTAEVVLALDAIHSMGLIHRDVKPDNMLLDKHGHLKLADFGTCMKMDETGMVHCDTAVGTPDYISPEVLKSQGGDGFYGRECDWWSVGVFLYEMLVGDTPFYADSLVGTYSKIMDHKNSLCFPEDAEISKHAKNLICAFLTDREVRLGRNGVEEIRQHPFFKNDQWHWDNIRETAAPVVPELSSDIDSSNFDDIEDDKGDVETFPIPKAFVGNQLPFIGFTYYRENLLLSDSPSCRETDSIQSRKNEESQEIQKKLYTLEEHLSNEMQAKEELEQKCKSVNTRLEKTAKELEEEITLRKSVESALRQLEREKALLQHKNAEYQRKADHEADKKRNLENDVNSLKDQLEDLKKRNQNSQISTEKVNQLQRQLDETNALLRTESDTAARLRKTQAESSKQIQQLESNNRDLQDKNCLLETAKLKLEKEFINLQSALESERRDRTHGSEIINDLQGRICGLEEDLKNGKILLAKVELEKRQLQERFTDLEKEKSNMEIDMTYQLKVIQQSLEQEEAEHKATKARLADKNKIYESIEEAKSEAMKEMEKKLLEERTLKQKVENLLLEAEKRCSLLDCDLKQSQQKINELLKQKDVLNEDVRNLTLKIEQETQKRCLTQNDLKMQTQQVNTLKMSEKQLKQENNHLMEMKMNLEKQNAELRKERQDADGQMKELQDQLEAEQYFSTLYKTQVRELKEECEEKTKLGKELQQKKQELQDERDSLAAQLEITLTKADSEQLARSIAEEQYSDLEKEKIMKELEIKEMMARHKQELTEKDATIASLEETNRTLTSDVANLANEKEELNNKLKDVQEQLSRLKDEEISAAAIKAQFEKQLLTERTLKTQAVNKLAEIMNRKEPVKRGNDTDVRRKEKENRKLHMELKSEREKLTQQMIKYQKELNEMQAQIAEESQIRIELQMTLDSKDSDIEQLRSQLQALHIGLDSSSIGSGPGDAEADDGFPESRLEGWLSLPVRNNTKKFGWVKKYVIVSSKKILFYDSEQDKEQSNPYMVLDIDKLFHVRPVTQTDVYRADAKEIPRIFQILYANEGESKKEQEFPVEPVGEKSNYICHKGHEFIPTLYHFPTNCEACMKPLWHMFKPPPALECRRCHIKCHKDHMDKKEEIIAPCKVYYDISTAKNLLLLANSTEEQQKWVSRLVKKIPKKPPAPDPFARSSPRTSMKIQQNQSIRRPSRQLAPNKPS

As a reminder, the IC50 is the midpoint of a concentration-inhibition curve. A high value points to a need for much substance. In the case of `CC[C@@H](N)[C@]1(C2CCOCC2)CC[C@H](Oc2cc3cc[nH]c(=O)c3cc2Cl)CC1`, the IC50 was at most 0.01 µM.

`CCC(N)[C@]1(C2CCCCC2)CC[C@H](Oc2cc3cc[nH]c(=O)c3cc2Cl)CC1` (some centres undefined): the IC50 lay within 0.01 to 0.1 µM.

As for `CCCC(N)[C@]1(C(C)C)CC[C@H](Oc2cc3cc[nH]c(=O)c3cc2Cl)CC1` (some centres undefined), the IC50 was 0.01 to 0.1 µM.

`CC(C)CC(N)[C@]1(CC2CC2)CC[C@H](Oc2cc3cc[nH]c(=O)c3cc2Cl)CC1` (some centres undefined) registered an IC50 of at most 0.01 µM.

`C[C@]1(C(N)C2CC2)CC[C@@H](Oc2cc3cc[nH]c(=O)c3cc2Cl)CC1` (some centres undefined) gave an IC50 of at most 0.01 µM.

Regarding `CCC(N)[C@]1(C(C)C)CC[C@H](Oc2cc3c(F)c[nH]c(=O)c3cc2Cl)CC1` (some centres undefined), the IC50 lay in the range of 0.01 to 0.1 µM.

As to `CCC(N)[C@]1(C2CCS(=O)(=O)CC2)CC[C@H](Oc2cc3cc[nH]c(=O)c3cc2Cl)CC1` (some centres undefined), the IC50 was at most 0.01 µM.

With `CCC(N)C1(COC(C)C)CCC(Oc2cc3cc[nH]c(=O)c3cc2Cl)CC1` (centres undefined), the IC50 was 0.01 to 0.1 µM and 0.1 to 1 µM.

In turn, `CCC(N)[C@]1(C)CC[C@H](Oc2cc3cc[nH]c(=O)c3cc2Cl)CC1` (some centres undefined) came in with an IC50 of at most 0.01 µM.

`CC(C)C(N)C1(C(C)C)CCC(Oc2cc3cc[nH]c(=O)c3cc2Cl)CC1` (centres undefined): the IC50 lay within 0.1 to 1 µM.

The molecule `NC(c1ccccc1)C1(C2CCCC2)CCC(Oc2cc3cc[nH]c(=O)c3cc2Cl)CC1` (centres undefined) showed an IC50 of 0.01 to 0.1 µM.

Consider `CCC(N)[C@]1(CC)CC[C@H](Oc2c(F)cc3c(=O)[nH]ccc3c2C)CC1` (some centres undefined), for which the IC50 was in the range of 0.1 to 1 µM.

In turn, `CCC(NCC(C)C)[C@]1(CC)CC[C@H](Oc2cc3cc[nH]c(=O)c3cc2Cl)CC1` (some centres undefined) had an IC50 of 0.1 to 1 µM.

In the case of `CCC(N)C1(CC(C)C)CCC(Oc2cc3cc[nH]c(=O)c3cc2Cl)CC1` (centres undefined), the IC50 is 0.01 to 0.1 µM and 0.1 to 1 µM.

`CC[C@]1(C(N)C2CC2)CC[C@@H](Oc2cc3cc[nH]c(=O)c3cc2Cl)CC1` (some centres undefined) returned an IC50 of at most 0.01 µM.

As for `CCC[C@]1(C(C)N)CC[C@@H](Oc2cc3ccnc(N)c3cc2Cl)CC1` (some centres undefined), the IC50 lay within 0.1 to 1 µM.

In the case of `CC[C@]1(C(C)N)CC[C@@H](Oc2cc3cc[nH]c(=O)c3cc2C)CC1` (some centres undefined), the IC50 was in the range of 0.01 to 0.1 µM.

`CCOC1(C(N)CC)CCC(Oc2cc3cc[nH]c(=O)c3cc2Cl)CC1` (centres undefined): the IC50 lay in the range of 0.01 to 0.1 µM.

Consider `CCC(N)[C@]1(C2CC2)CC[C@H](Oc2cc3cc[nH]c(=O)c3cc2Cl)CC1` (some centres undefined), for which the IC50 is at most 0.01 µM.

Regarding `CCC(N)C1(CC2CC2)CCC(Oc2cc3cc[nH]c(=O)c3cc2Cl)CC1` (centres undefined), the IC50 is 0.01 to 0.1 µM and ≤ 0.01 µM.

Molecule `CC[C@]1(C(C)N)CC[C@@H](Oc2cc3c(Cc4ccccc4)c[nH]c(=O)c3cc2Cl)CC1` (some centres undefined) displayed an IC50 of 0.1 to 1 µM.

As to `CC[C@]1(C(C)N)CC[C@@H](Oc2ccc3cnccc3c2Cl)CC1` (some centres undefined), the IC50 is 0.1 to 1 µM.

The molecule `CCC(N)[C@]1(CC)CC[C@H](Oc2c(C)cc3c(=O)[nH]ccc3c2C)CC1` (some centres undefined) returned an IC50 of 0.1 to 1 µM.

Molecule `CCCC1(C(N)CC)CCC(Oc2cc3cc[nH]c(=O)c3cc2Cl)CC1` (centres undefined) had an IC50 of at most 0.01 µM.

The molecule `NC(C1CC1)[C@]1(CCCC(F)(F)F)CC[C@H](Oc2cc3cc[nH]c(=O)c3cc2Cl)CC1` (some centres undefined) came in with a half-maximal inhibitory concentration (IC50) of at most 0.01 µM.

In turn, `CC[C@]1(C(C)N)CC[C@@H](Oc2cc3ccncc3cc2Br)CC1` (some centres undefined) showed an IC50 of 0.1 to 1 µM.

In turn, `CCC1(C(N)CCOC)CCC(Oc2cc3cc[nH]c(=O)c3cc2Cl)CC1` (centres undefined) came in with an IC50 of 0.01 to 0.1 µM.

In turn, `CCC(N)[C@]1(OC)CC[C@H](Oc2cc3cc[nH]c(=O)c3cc2Cl)CC1` (some centres undefined) returned an IC50 of 0.01 to 0.1 µM.

As to `CC(N)C1(C2CCC2)CCC(Oc2cc3cc[nH]c(=O)c3cc2Cl)CC1` (centres undefined), the IC50 is 0.01 to 0.1 µM.

`CCC(NCc1ccccc1)[C@]1(CC)CC[C@H](Oc2cc3cc[nH]c(=O)c3cc2Cl)CC1` (some centres undefined): the IC50 was in the range of 0.1 to 1 µM.

`CCC(N)[C@]1(CCCC(F)(F)F)CC[C@H](Oc2cc3cc[nH]c(=O)c3cc2Cl)CC1` (some centres undefined) registered an IC50 of at most 0.01 µM.

For the molecule `CCC(N)C1(C)CCC(Oc2cc3cc[nH]c(=O)c3cc2Cl)CC1` (centres undefined), the IC50 was 0.01 to 0.1 µM.

`CC(C)C(N)C1(CC2CC2)CCC(Oc2cc3cc[nH]c(=O)c3cc2Cl)CC1` (centres undefined) returned a half-maximal inhibitory concentration (IC50) of at most 0.01 µM.

Molecule `CCC(N)[C@]1(CC)CC[C@H](Oc2c(F)cc3cnccc3c2C)CC1` (some centres undefined) had an IC50 of 0.1 to 1 µM.

`CC[C@H](N)[C@]1(C2CCOCC2)CC[C@H](Oc2cc3cc[nH]c(=O)c3cc2Cl)CC1` came in with an IC50 of 0.01 to 0.1 µM.

For the molecule `CC[C@@H](N)[C@]1(C)CC[C@H](Oc2cc3cc[nH]c(=O)c3cc2Cl)CC1`, the IC50 is at most 0.01 µM.

The molecule `CC[C@]1(C(C)N)CC[C@@H](Oc2c(F)cc3c(=O)[nH]ccc3c2C)CC1` (some centres undefined) displayed an IC50 of 0.1 to 1 µM.

The molecule `CCCC[C@]1(C(N)CC)CC[C@@H](Oc2cc3cc[nH]c(=O)c3cc2Cl)CC1` (some centres undefined) showed an IC50 of at most 0.01 µM.

Take `CCCCNC(CC)[C@]1(CC)CC[C@H](Oc2cc3cc[nH]c(=O)c3cc2Cl)CC1` (some centres undefined): the IC50 is 0.1 to 1 µM.
